Entries after “also recorded” stand apart in the source; their conditions may differ.
Legend:
[1] = Solubility in solvents; type: physicochemical; settings: for State: solubility in organic solvents: organic solvents such as ethyl acetate, acetone, methanol, and ethanol
[2] = target: T1, aldose reductase (Rattus norvegicus, UniProt P07943); experiment: Aldose reductase-inhibiting activity (rat lens homogenate supernatant, D,L-glyceroaldehyde substrate, TPNH coenzyme); type: biochemical; settings: 10 mM D,L-glyceroaldehyde, 0.1 mM TPNH, pH 6.2, 25° C., absorbance at 340 nm
T1 construct: A homogenate of rat lenses was used as an enzyme source; from tissue; host or cells: rat lens, supernatant of the homogenate after centrifugation
Method: Aldose Reductase-Inhibiting Activity
A homogenate of rat lenses was used as an enzyme source, glyceroaldehyde as a substrate, and TPNH as a coenzyme. To a mixture of 0.1M phosphate buffer (pH 6.2), 0.4M sodium sulfate, 0.1 mM TPNH (reduced form of triphosphopyridine nucleotide), and 10 mM D, L-glyceroaldehyde, a supernatant obtained from the homogenate of rat lenses by centrifugation was added as an enzyme source, so that the change in absorbance at 340 nm became 0.02 units per minute at 25° C. The change in absorbance at 340 nm for initial one minute was measured at 25° C., and the inhibiting activity was determined.

SMILES	State: solubility in organic solvents [1]	IC50 [2]	Solubility ([1]; solvents: ethyl acetate, DMSO, methanol, ethanol, chloroform, ether, petroleum ether)
CC(C(=O)O)C1Cc2c(cc3c(c2O)CN(C(CCC(=O)O)C(=O)O)C3=O)O1 (centres unmarked) [RD-01-A3]	soluble	11.9 µM	–
CC(C(=O)O)C1Cc2c(cc3c(c2O)CN(C(C)C(=O)O)C3=O)O1 (centres unmarked) [RD-01-A7]	soluble	–	–
CC(C(=O)O)C1Cc2c(cc3c(c2O)C(=O)NC3=O)O1 (centres unmarked) [RD-01-C1]	soluble	–	–
CC(C(=O)O)C1Cc2c(cc3c(c2O)CN(CC(=O)O)C3=O)O1 (centres unmarked) [RD-01-A4]	soluble	–	soluble in ethyl acetate, DMSO, methanol, and ethanol; also recorded: slightly soluble in chloroform and ether; also recorded: insoluble in petroleum ether
CC(C(=O)O)C1Cc2c(cc3c(c2O)C(=O)N(CC(=O)O)C3=O)O1 (centres unmarked) [RD-01-C2]	soluble	–	–
CC(C(=O)O)C1Cc2c(cc3c(c2O)C(=O)N(C(C)C(=O)O)C3=O)O1 (centres unmarked) [RD-01-C3]	soluble	–	–

Source: patent US5324742A, “Aldose reductase inhibitor obtained from Crucibulum sp. RF-3817” (Shionogi & Co., Ltd., priority 1990, dated 1994)
